From patent US20240148745A1, “COMPOUNDS FOR USE IN PROGRESSIVE MULTIPLE SCLEROSIS” (FONDAZIONE CENTRO SAN RAFFAELE, priority 2021, published 2024) come the findings set out here.

The subject of assay [1] is mouse cortical neurons. Briefly: Morphological integrity evaluation, NMDA 8 μM (MAP2 neurite length and branching). It counts as cell-based. To be noted: 3 h pre-treatment, NMDA 8 μM 24 h, Z>0.5 criteria. The method in brief: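 Mouse cortical neurons (14 DIV) pre-treated 3 h with compounds, then exposed 24 h to 8 μM NMDA; fixed, MAP2 immunostained with DAPI. Total neurite length and non-trunk branch number from 15 images/well, triplicates, converted to plate-based Z-scores; NAC positive, staurosporine and NMDA negative controls.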

The test system of assay [2] is mouse cortical and striatal neurons. Put plainly: Morphological integrity evaluation, NMDA 20 μM. It counts as cell-based. To be noted: 1 μM, 24 h pre-treatment, NMDA 20 μM 24 h. Here is the method:
Morphological integrity evaluation. Mouse cortical and striatal neurons (14 DIV) cultured in MW96 plates were exposed to 1 uM to 60 uM concentrations of NMDA and relationship between the NMDA dose and fiber length was evaluated. […] Each of the compound was tested in quadruplicate. The fiber length was evaluated by MAP2 staining (please see the method described earlier).
42 compounds were screened to evaluate the morphological integrity of cortical and striatal neurons upon chronic (24 h) NMDA exposure at concentration of 20 μM with compounds pre-treatment (24 h) in preventive regimen (FIG. 17).

Assay [3] has as its system rat oligodendrocyte progenitor CG4 line. Put plainly: Differentiation assay on rat oligodendrocyte progenitor CG4 line (HCS, mCherry+). It counts as cell-based. To be noted: secondary screen of 49 selected compounds, 1 μM, 5 days. In short, it runs like this: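 Double-reporter CG4 cells (mCherry in mature oligodendrocytes, EGFP in all lineage stages) proliferated 24 h, then given compounds at 1 μM for 5 days of differentiation, ⅔ medium changed at day 3. 9cis-RA as positive control, basal medium and 0.1% DMSO as negative; triplicates imaged by HCS, 35 fields/well.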

Assay [4] deals with human iPS-derived neuroprecursors. Briefly: Differentiation of human iPS-derived neuroprecursors into MBP+ oligodendrocytes. To be noted: 1 μM in minimal medium, p<0.05. It counts as cell-based. From the text: NPC bearing a doxycycline inducible polycistronic construct containing SOX10, OLIG2 and NKX6.2^29 in a human safe harbor (passages 10 to 25) were singularized on day −3 by treatment with Accutase and plated on Matrigel-coated 12-well plates at a density of 100.000 cells per well in N2B27-medium containing equal parts of neurobasal (Invitrogen) and DMEM-F12 medium (Invitrogen) with 1:100 B27 supplement lacking vitamin A (Invitrogen), 1:200 N2 supplement (Invitrogen), 1% penicillin/streptomycin/glutamine (PSG), 3 μM CHIR99021 (Axon Medchem), 150 μM ascorbic acid and 0.5 μM SAG. The next day medium was changed to N2B27-medium containing 1 μg/ml doxycycline. On DO medium was changed to glial-induction medium (GIM) consisting of DMEM-F12 with 1:100 B27 supplement lacking vitamin A, 1:200 N2 supplement, 1% PSG, 1 μM SAG, 10 ng/mL NT3 (Peprotech), 10 ng/mL IGF-I (Peprotech), 200 μM AA (Sigma), 1:1000 Trace Elements B (Corning). For full medium conditions 10 ng/ml T3 was added. On Day 2 medium was changed to glial-differentiation medium (GDM) comprising DMEM-F12 with 1:100 B27 supplement lacking vitamin A, 1:200 N2 supplement, 1% PSG, 100 μM dbCAMP (Sigma), 100 μM AA, 1:1000. For full medium conditions 60 ng/mL T3, Trace Elements B 10 ng/mL, IGF-I, 10 ng/mL and NT3 were added to the culture. GDM was changed every other day. On day 7 cells were detached by treatment with Accutase and re-plated on laminin coated 48-well plates at densities of 10.000-12.000 cells per well. After 24 h cells were treated in minimal medium with either vehicle alone [0.01% (vol/vol) DMSO] as a negative control, 60 ng/mL T3 as a positive control, or with a drug candidate dissolved in DMSO. Medium was changed every other day. On D16 doxycycline was removed from the medium. Cells were fixed on D21 and analyzed via immunocytochemistry.
Immunocytochemistry. Cells were initially fixed with 4% PFA treatment for 20 min, RT. Following three washes with PBS cells were incubated with blocking solution containing 5% normal goat serum (NGS) and 5% FCS (fetal calf serum) in PBS for 30 min at RT to prevent unspecific binding of the antibodies. To detect intracellular antigens cells were permeabilized by adding 0.5% Triton X-100 to the Blocking-solution. Cells treated with Triton X-100 were washed three times with PBS each time for 5 min at RT. Primary antibodies (rat anti-MBP,1:50, Abcam, AB7349) were applied overnight, 4° C., in blocking solution. The next day cells were washed 3 times with PBS at RT, and afterwards incubated with secondary antibodies (AF488 Alexa Fluor anti-rat (goat), 1:500, Jackson/Dianova, #112-545-167) diluted in PBS for 1 h at RT. Secondary antibodies were subsequently removed by washing 3 times with PBS. Afterwards PBS containing a Dapi staining for nuclei was added for 5 minutes and afterwards washed off with PBS. Cells were kept at 4° C. until imaging.
Imaging and evaluation. From each condition (triplicates) 20-30 pictures were taken randomly chosen by the Dapi-signal. Cell numbers were determined by using an ImageJ Macro to count the nuclei whereas MBP positive cells were subsequently counted manually in black and white images.
The effect on oligodendroglial differentiation of 32 compounds (“Front runners”) was tested. Induced pluripotent stem cells in which the transcription factors SOX10, OLIG2, NKX6.2 were inserted in a doxycycline inducible manner into a human safe harbor were differentiated into neural stem cells. Differentiation into oligodendrocytes was induced by addition of doxycycline. Cells were cultured either in a minimal medium (MM) (negative control) or in MM with the different compounds at a concentration of 1 μM. Addition of T3 to the minimal medium served as a positive control.

Assay [5] has as its system murine cortical neurons (14 DIV). Briefly: NMDA-mediated neuroprotective assay (CCK8 viability). It counts as cell-based, mouse. To be noted: 1 μM, 3 h pre-treatment, NMDA 8 μM 24 h, p<0.05. Here is the method:
To assess neuroprotective activity of 160 selected non-toxic compounds on primary murine cortical neurons, obtained as described in the previous paragraph, ([…]), cultures were pre-treated with 1 μM compounds for either 3 or 24 hours, followed by 24 hours chronic stimulation with NMDA (8 μM) to induce neuronal damage. Each test plate included: a negative control (untreated), vehicle-treated control (0.02% vol/vol DMSO), a positive neurotoxic control—staurosporine 0.1 μM, a stressor—NMDA 8 μM, a positive neuroprotective control—NAC 300 μM, and a combination of stressor +neuroprotective molecule (NMDA+NAC). Cell viability was measured with Cell Counting Kit-8 assay compared to NMDA-treated control.
The potential neuroprotective activity of 160 selected non-toxic compounds was evaluated on murine cortical neurons (14 DIV) with either 3 h (FIG. 13) or 24 h compounds pre-treatment (FIG. 14). In assay with 3 h pre-treatment, 17 compounds were identified as potential NMDA-neuroprotective hits (marked with black asterisk in FIG. 13, stat. significant at p<0.05, Kruskal-Wallis test with post-hoc two-stage linear step-up procedure of Benjamini, Krieger and Yekutieli multiple comparison correction).

For assay [6], the system named is iPSC-derived glutamatergic neurons. Briefly: ROS (tBuOOH)-mediated neuroprotective assay on hNeu. To be noted: control line CTR4, 1 μM, p<0.05. It counts as cell-based, human. Here is the method: Neuroprotective experiments were performed using iPSC-derived glutamatergic neurons from 3 healthy controls cultured for 30-40 DIV. Cells were pre-treated for 24 h with […] of compounds, vehicle (DMSO) or 5 nM Mito-Q (mitoquinone) served as a positive control. On the next day cells were incubated for 2 h with 100 µM of tert-butyl peroxide (tBuOOH, Sigma), then the medium was replaced and the viability readout by CCK8 viability assay kit (Dojindo) was performed on the following day. The cell viability was expressed as normalized Z score and compared to tBuOOH-treated cells with nonparametric Kruskal-Wallis test with Dunn's multiple comparisons correction.
32 “Front runners” and 7 compounds from short list were tested on iPSC-derived neurons from three control lines in ROS-mediated assay to evaluate a neuroprotective potential of selected compounds. Three independent experiments were performed for CTR4 and CTR8, FIG. 20 (A, C), while two independent experiments were performed for CTR7, FIG. 20 (B).

Assay [7] concerns rat primary OPC cultures. Briefly: Differentiation of rat primary OPC into MBP+ OLs. It counts as cell-based. To be noted: 96 h, 4 days of differentiation, read-out: MBP+ differentiation (MBP+/SOX10+ OLs plus compounds / plus basal medium). In short, it runs like this: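 Primary rat OPCs were differentiated for 4 days with compounds at […], in triplicate over 3 independent experiments. Cells were immunolabelled for CNPase, MBP and SOX10, and MBP+ oligodendrocytes were counted by imaging. Results are fold increase in MBP+/SOX10+ cells over basal medium; 9-cis-RA ([…]) was the positive control.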

Assay [8] relates to H9-derived human neural stem cells. Briefly: Neurotoxic or regenerative effect screening (CellTiter-Glo). To be noted: 10 μM, three independent screenings. It counts as cell-based. Here is the method:
H9-derived human neural stem cells (H9 hNSCs, Gibco) were cultured according to the manufacturer's instructions. Briefly, H9 hNSCs were expanded and subsequently differentiated in neurobasal medium, 2% B27, 1% Glutamax, and 1% penicillin/streptomycin, supplemented with 10 ng/ml BDNF (Peprotech), and 2 ng/ml recombinant human GDNF (Peprotech). After 7 days, 500 μM of db-cAMP (N6,2′-O-dibutyryladenosine 3′,5′-cyclic monophosphate, Sigma) was added.
The metabolic activity/viability of selected compounds (32 “Front Runners”+24 compounds from the “Short list”) was evaluated by CellTiter-Glo® Luminescent Cell Viability Assay. The primary screen of Front Runner List (32 compounds)+24 compounds from Short List) on H9-derived human neurons was performed at 10 μM concentration. The validation of hits from primary screen on H9-derived human neurons was performed at 10 μM concentration.
32 Front Runners were tested at 10 μM on H9-derived human neuronal cultures and viability was evaluated by CellTiter-Glo® Luminescent Cell Viability Assay.

The structures appear in SMILES notation. Entries after “also recorded” stand apart in the source; their conditions may differ.

Turning to `O=c1[nH]c2cccc(N3CCN(Cc4cccc(-c5ccccc5)c4)CC3)c2o1` [Bifeprunox], the “preservation of neurite length and network integrity (branching)” value was “preserved both neurite length and the network integrity (branching)” in assay [1]; “two best-performing compounds” in assay [1] (listed as BIFEPRUNOX). Moreover, the “morphological integrity (neurite length) of cortical and striatal neurons” value (from here on “morphological integrity (neurite length)”) in assay [2] was “selected for confirmation”.

Take `CNC(=O)c1ccc(Oc2ccc3c(c2)CCN(C2CCC2)CC3)nc1` [GSK189254]: in assay [3], the “CG4 differentiation compared with 9cis-RA positive control” value (shortened to “CG4 differentiation”) is reported as “promoting differentiation significantly higher than 9cis-RA positive control”. In addition, the figures for the “differentiation into MBP+ oligodendrocytes” value in assay [4] and in assay [4] (listed as Gsk189254) were “promote significantly (p<0.05) the differentiation into MBP+ oligodendrocytes” and “promote significantly the differentiation into MBP+ oligodendrocytes”, respectively. The “neuroprotection of viability/metabolic activity against NMDA” value in assay [5] is “hit compounds”. In addition, the “protection from tBuOOH insult” value in assay [6] is listed as “protected from tBuOOH insult”.

Take `C[C@@H](C(=O)O)c1ccc(-c2ccccc2)c(F)c1` [Tarenflurbil]: in assay [5], the “neuroprotection of viability/metabolic activity against NMDA” value was “trend versus significance”. Also, the “morphological integrity (neurite length)” value in assay [2] is “selected for confirmation”.

`CCC(COC(=O)c1cc(OC)c(OC)c(OC)c1)(c1ccccc1)N(C)C` (stereo not drawn) [Trimebutine]: the “morphological integrity (neurite length)” value in assay [2] was “hit-compound in both cortical and striatal neuronal assays”.

In the case of `Cc1c(Cn2c(C)nc3c(C(=O)O)cc(N4CCOCC4)cc32)cccc1C(F)(F)F` [GSK-2636771], the “morphological integrity (neurite length)” value in assay [2] is on record as “selected for confirmation”.

For `O=C(Oc1ccc(Br)cc1)N1CCN2CCC1CC2` [SSR180711], the “neuroprotection of viability/metabolic activity against NMDA” value in assay [5] was “hit compounds”. Also, in assay [1], the “preservation of neurite length and network integrity (branching)” value was “preserved both neurite length and the network integrity (branching); also recorded: two best-performing compounds”. In assay [2], the “morphological integrity (neurite length)” value was “selected for confirmation”.

In the case of `COc1ccc(S(=O)(=O)n2cc(CCC(=O)O)c3cc(OC)ccc32)cc1` [Indeglitazar], the “CG4 differentiation” value in assay [3] is “promoting differentiation significantly higher than 9cis-RA positive control”. Also, the fold induction at 1 µM in assay [7] was more than 1.6. Besides, the “differentiation into MBP+ oligodendrocytes” value in assay [4] is listed as “promote significantly (p<0.05) the differentiation into MBP+ oligodendrocytes”. Besides, the “cumulative Z-scores of ATP production/viability” value in assay [8] is “potential hits”.

As for `Cc1ncc(OC[C@@]2(c3cccc(F)c3)C[C@H]2C(=O)Nc2ccc(F)cn2)c(C)n1` [Lemborexant], the “CG4 differentiation” value in assay [3] was “promoting differentiation significantly higher than 9cis-RA positive control”. For the same molecule, the fold induction at 1 µM in assay [7] is more than 1.6. The “cumulative Z-scores of ATP production/viability” value in assay [8] is given as “potential hits”.

Consider `C=CCc1ccccc1OCC(O)CNC(C)C` (stereo not drawn) [Alprenolol], for which the “CG4 differentiation” value in assay [3] is “promoting differentiation significantly higher than 9cis-RA positive control”. The fold induction at 1 µM in assay [7] is more than 1.6. Further, the “cumulative Z-scores of ATP production/viability” value in assay [8] is recorded as “potential hits”.

Turning to `COc1ccc2c(OCc3nnc4ccc(-c5ccccc5)nn34)ccnc2c1` [AMG-208], in assay [2], the “morphological integrity (neurite length)” value is recorded as “selected for confirmation”.

For `COc1ccc(Cl)cc1[C@]1(F)C(=O)Nc2cc(C(F)(F)F)ccc21` [Flindokalner], the “morphological integrity (neurite length)” value in assay [2] was “selected for confirmation”.
